In publication PMC10489980, “Design of Potent and Salt-Insensitive Antimicrobial Branched Peptides” (Polymers, 2023):
Residues, ends and D or L forms follow the SMILES beside them.

What was measured:
Format in all cases: cell-based
[1] = test system: Candida albicans ATCC 37092; conditions: ATCC 37092, 3 h
Description: (§1) Ten organisms obtained from the American Type Culture Collection (ATCC; Rockville, MD) were used for antimicrobial assays. Four Gram-negative bacteria included Escherichia coli ATCC 25922, Pseudomonas aeruginosa ATCC 27853, Klebsiella oxytoca ATCC 49131, and Proteus vulgaris ATCC 49132. The three Gram-positive bacteria were Staphylococcus aureus 29213, Micrococcus luteus ATCC 49,732, and Enterococcus faecalis ATCC 29212. The three fungi were Candida albicans ATCC 37092, Candida kefyr ATCC 37095, and Candida tropicalis ATCC 37097. The clinical isolates were obtained from Singapore General Hospital (SGH). They are Enterococcus faecium, Staphylococcus aureus, Klebsiella pneumoniae, Acinetobacter baumannii, Pseudomonas aeruginosa, and Enterobacter species. The strains were incubated in trypticase soy broth (TSB), which was prepared in double distilled water and autoclaved for sterilization. TSB was purchased from Becton-Dickinson (Cockeysville, MD, USA).
(§2) Antimicrobial Assays. A sensitive and reproducible two-stage radial diffusion antimicrobial assay of Lehrer et al. was employed. A 1–4 × 10^6 colony-forming unit/mL of the test organism was mixed with 10 mL of molten underlay gel solution and poured into Petri dishes to form a uniform layer. The gel solution consisted of 10 mM sodium phosphate buffer, 0.03% TSB, and 0.02% Tween-20, with the addition of 100 mM NaCl in the case of high-salt conditions. Upon gel solidification, gel wells were made by a 3-mm diameter template in an evenly spaced array. A 5 µL aliquot of a serial half-log dilution of test peptides at seven concentrations was added to each well after removal of gel plugs. The dishes were incubated at 37 °C for 3 h to allow peptide diffusion into the underlay gels. Gels were overlaid with 10 mL of 1% agarose in 6% TSB (wt/vol). After additional incubation at 37 °C for 16–24 h, the diameter of the clear zone surrounding the wells (colony-free) was measured under a microscope. Antimicrobial activities were expressed in units (0.1 mm = 1 unit), and the MICs (in µM) were determined from the x-intercepts of the dose-response curves. Experiments were performed in triplicates.

[2] = test system: Escherichia coli ATCC 25922; conditions: ATCC 25922, 3 h
Description: as §1, §2

[3] = test system: Pseudomonas aeruginosa ATCC 27853; conditions: ATCC 27853, 3 h
Description: as §1, §2

[4] = test system: Staphylococcus aureus 29213; conditions: 29213, 3 h
Description: as §1, §2

[5] = test system: Klebsiella oxytoca ATCC 49131; conditions: ATCC 49131, 3 h
Description: as §1, §2

[6] = test system: Candida kefyr ATCC 37095; conditions: ATCC 37095, 3 h
Description: as §1, §2

[7] = test system: Enterococcus faecalis ATCC 29212; conditions: ATCC 29212, 3 h
Description: as §1, §2

[8] = test system: Proteus vulgaris ATCC 49132; conditions: ATCC 49132, 3 h
Description: as §1, §2

[9] = test system: Candida tropicalis ATCC 37097; conditions: ATCC 37097, 3 h
Description: as §1, §2

[10] = test system: Micrococcus luteus ATCC 49,732; conditions: ATCC 49, 3 h
Description: as §1, §2

Structure (SMILES)	MIC, C. albicans, H-Salt [1] [µM]	MIC, C. albicans, L-Salt [1] [µM]	MIC, E. coli, H-Salt [2] [µM]	MIC, E. coli, L-Salt [2] [µM]	MIC, P. aeruginosa, H-Salt [3] [µM]	MIC, P. aeruginosa, L-Salt [3] [µM]	MIC, S. aureus, H-Salt [4] [µM]	MIC, S. aureus, L-Salt [4] [µM]	MIC, K. oxytoca, H-Salt [5] [µM]	MIC, K. oxytoca, L-Salt [5] [µM]	MIC, C. kefyr, H-Salt [6] [µM]	MIC, C. kefyr, L-Salt [6] [µM]	MIC, E. faecalis, H-Salt [7] [µM]	MIC, E. faecalis, L-Salt [7] [µM]	MIC, P. vulgaris, H-Salt [8] [µM]	MIC, P. vulgaris, L-Salt [8] [µM]	MIC, C. tropicalis, H-Salt [9] [µM]	MIC, C. tropicalis, L-Salt [9] [µM]	MIC, M. luteus, H-Salt [10] [µM]	MIC, M. luteus, L-Salt [10] [µM]
CC(C)C[C@H](NC(=O)[C@@H](N)CCCNC(=N)N)C(=O)N[C@@H](Cc1ccc(O)cc1)C(=O)N[C@@H](CCCNC(=N)N)C(=O)NCCCC[C@H](NC(=O)[C@H](CCCCNC(=O)[C@H](CCCNC(=N)N)NC(=O)[C@H](Cc1ccc(O)cc1)NC(=O)[C@H](CC(C)C)NC(=O)[C@@H](N)CCCNC(=N)N)NC(=O)[C@H](CCCCNC(=O)[C@H](CCCNC(=N)N)NC(=O)[C@H](Cc1ccc(O)cc1)NC(=O)[C@H](CC(C)C)NC(=O)[C@@H](N)CCCNC(=N)N)NC(=O)[C@H](CCCCNC(=O)[C@H](CCCNC(=N)N)NC(=O)[C@H](Cc1ccc(O)cc1)NC(=O)[C@H](CC(C)C)NC(=O)[C@@H](N)CCCNC(=N)N)NC(=O)[C@H](CCCNC(=N)N)NC(=O)[C@H](Cc1ccc(O)cc1)NC(=O)[C@H](CC(C)C)NC(=O)[C@@H](N)CCCNC(=N)N)C(N)=O [K5R] (HELM PEPTIDE1{R.L.Y.R.K.K.K.K.[am]}|PEPTIDE2{R.L.Y.R}|PEPTIDE3{R.L.Y.R}|PEPTIDE4{R.L.Y.R}|PEPTIDE5{R.L.Y.R}$PEPTIDE1,PEPTIDE2,8:R3-4:R2|PEPTIDE1,PEPTIDE3,7:R3-4:R2|PEPTIDE1,PEPTIDE4,6:R3-4:R2|PEPTIDE1,PEPTIDE5,5:R3-4:R2$$$V2.0; N-terminus assumed)	0.8	0.7	0.6	0.7	0.8	0.8	0.7	0.8	1.3	0.9	0.9	0.9	1.4	1.3	0.7	1.2	1.3	1.1	0.8	0.6
CC(C)C[C@H](NC(=O)[C@@H](N)CCCNC(=N)N)C(=O)N[C@@H](Cc1ccc(O)cc1)C(=O)N[C@@H](CCCNC(=N)N)C(=O)NCCCC[C@H](NC(=O)[C@H](CCCNC(=N)N)NC(=O)[C@H](Cc1ccc(O)cc1)NC(=O)[C@H](CC(C)C)NC(=O)[C@@H](N)CCCNC(=N)N)C(=O)NCCCC[C@H](NC(=O)[C@H](CCCNC(=N)N)NC(=O)[C@H](Cc1ccc(O)cc1)NC(=O)[C@H](CC(C)C)NC(=O)[C@@H](N)CCCNC(=N)N)C(=O)NCCCC[C@H](NC(=O)[C@H](CCCNC(=N)N)NC(=O)[C@H](Cc1ccc(O)cc1)NC(=O)[C@H](CC(C)C)NC(=O)[C@@H](N)CCCNC(=N)N)C(=O)NCCCC[C@H](NC(=O)[C@H](CCCNC(=N)N)NC(=O)[C@H](Cc1ccc(O)cc1)NC(=O)[C@H](CC(C)C)NC(=O)[C@@H](N)CCCNC(=N)N)C(N)=O [iK5R] (HELM PEPTIDE1{R.L.Y.R.K}|PEPTIDE2{R.L.Y.R}|PEPTIDE3{R.L.Y.R.K}|PEPTIDE4{R.L.Y.R.K}|PEPTIDE5{R.L.Y.R.K.[am]}$PEPTIDE1,PEPTIDE2,5:R3-4:R2|PEPTIDE1,PEPTIDE3,5:R2-5:R3|PEPTIDE3,PEPTIDE4,5:R2-5:R3|PEPTIDE4,PEPTIDE5,5:R2-5:R3$$$V2.0; N-terminus assumed)	0.8	0.8	0.5	0.5	0.8	0.6	0.7	0.8	1.3	0.5	0.7	0.6	1.6	0.8	0.7	0.6	0.9	1.2	0.6	1.0
CC(=O)N[C@@H](CCCCNC(=O)[C@H](CCCNC(=N)N)NC(=O)[C@H](Cc1ccc(O)cc1)NC(=O)[C@H](CC(C)C)NC(=O)[C@@H](N)CCCNC(=N)N)C(=O)N[C@@H](CCCCNC(=O)[C@H](CCCNC(=N)N)NC(=O)[C@H](Cc1ccc(O)cc1)NC(=O)[C@H](CC(C)C)NC(=O)[C@@H](N)CCCNC(=N)N)C(=O)N[C@@H](CCCCNC(=O)[C@H](CCCNC(=N)N)NC(=O)[C@H](Cc1ccc(O)cc1)NC(=O)[C@H](CC(C)C)NC(=O)[C@@H](N)CCCNC(=N)N)C(N)=O [K3R]	0.7	1.0	0.8	0.7	0.7	0.9	0.6	0.6	0.8	0.7	0.7	0.8	1.3	1.0	1.0	0.6	0.6	1.1	0.8	0.7
